Test results published in paper PMC4167603 (Nature, 2014).
Values belong to the compound of their own block, whether it stands above or below them.

How the values were obtained:
[1] = target: T1, GABAAR β3 homopentamer (GABAAR-β3cryst) (Homo sapiens, UniProt P28472, DEL333-446/INS332SQPARAA); test: X-ray co-crystal structure; assay type: cell-based
T1 sequence (P28472 with tags, fused parts or gaps INS332SQPARAA): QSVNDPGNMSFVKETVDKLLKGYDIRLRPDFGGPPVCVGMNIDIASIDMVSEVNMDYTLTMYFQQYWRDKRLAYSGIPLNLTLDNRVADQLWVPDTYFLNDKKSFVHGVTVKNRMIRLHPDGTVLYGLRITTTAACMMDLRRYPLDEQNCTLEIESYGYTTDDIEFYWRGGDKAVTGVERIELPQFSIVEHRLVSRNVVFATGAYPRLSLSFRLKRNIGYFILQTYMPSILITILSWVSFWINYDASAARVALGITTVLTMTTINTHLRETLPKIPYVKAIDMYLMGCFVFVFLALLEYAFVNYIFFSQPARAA
T1 sequence (P28472 447-473): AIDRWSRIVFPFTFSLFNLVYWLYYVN

[2] = target: T1, GABAAR β3 homopentamer (GABAAR-β3cryst); test: thermostabilisation of purified receptor; assay type: binding
[3] = target: T1, GABAAR β3 homopentamer (GABAAR-β3cryst); test: thermostabilisation of purified receptor; assay type: binding; remark: listed apart in the source

EC50 [1]: 61 ± 12 µM
SMILES: N=C(N)c1ccccc1 [benzamidine]

SMILES: N#Cc1nn(-c2c(Cl)cc(C(F)(F)F)cc2Cl)c(N)c1[S+]([O-])C(F)(F)F (stereo not drawn) [fipronil]
EC50 [2]: 0.026 ± 0.005 µM

EC50 [3]: 400 ± 150 µM
SMILES: NCCc1c[nH]cn1 [histamine]
